According to BindingDB's records for doi:10.1016/j.bmc.2006.10.050 (Paradigm Pharmaceuticals, 2007):

Legend:
[1] = target: Serine/threonine-protein kinase PLK3 (Homo sapiens, UniProt Q9H4B4); experiment: PLK3 Kinase Inhibition Assay; conditions: pH 7; 22 °C
Procedure: The mode of human PLK3 inhibition by LFM-A13 was examined in titration experiments using increasing concentrations of [gamma-32P]ATP and purified N-terminal His6-tagged recombinant human PLK3. The Ki of PLK3 by LFM-A13 was calculated from the reciprocal plots of the intensity of phosphorylation of the substrate versus the concentration of the inhibitor. From this Dixon plot, the Ki represents the dissociation constants of the EI complex, which is determined by the point of linear intersection.

[2] = target: Serine/threonine-protein kinase PLK1 (Xenopus laevis, UniProt P70032); experiment: Plx1 Kinase Inhibition Assay; conditions: pH 7.5; 22 °C
Sequence of Serine/threonine-protein kinase PLK1 (P70032 whole entry): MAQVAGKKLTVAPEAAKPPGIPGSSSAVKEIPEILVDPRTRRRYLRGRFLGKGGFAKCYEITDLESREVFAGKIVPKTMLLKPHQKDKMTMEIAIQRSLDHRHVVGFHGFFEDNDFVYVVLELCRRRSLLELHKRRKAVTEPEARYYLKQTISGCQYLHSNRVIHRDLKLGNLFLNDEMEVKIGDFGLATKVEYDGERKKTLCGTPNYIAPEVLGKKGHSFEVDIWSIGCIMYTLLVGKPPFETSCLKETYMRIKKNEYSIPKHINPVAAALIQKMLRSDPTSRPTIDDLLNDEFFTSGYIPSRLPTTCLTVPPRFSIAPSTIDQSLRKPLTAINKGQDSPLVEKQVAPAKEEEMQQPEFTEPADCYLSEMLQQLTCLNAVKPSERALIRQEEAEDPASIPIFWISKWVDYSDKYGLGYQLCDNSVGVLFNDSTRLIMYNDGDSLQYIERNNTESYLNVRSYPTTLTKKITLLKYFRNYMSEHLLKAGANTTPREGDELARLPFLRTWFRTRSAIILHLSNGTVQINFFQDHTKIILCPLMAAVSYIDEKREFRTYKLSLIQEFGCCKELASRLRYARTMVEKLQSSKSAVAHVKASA
Procedure: Purified Plx1 was first incubated with different concentrations of LFM-A13. The substrate, GST-Cdc25 peptide (254-316) and [gamma-32P]ATP were added and the kinase reaction allowed to proceed for 15 min at room temperature. After incubation, incorporation of radioactivity to the substrate was further quantified.

[3] = target: Protein-tyrosine kinase 6 (Homo sapiens, UniProt Q13882); experiment: Kinase Selectivity Assay
Sequence of Protein-tyrosine kinase 6 (Q13882 whole entry): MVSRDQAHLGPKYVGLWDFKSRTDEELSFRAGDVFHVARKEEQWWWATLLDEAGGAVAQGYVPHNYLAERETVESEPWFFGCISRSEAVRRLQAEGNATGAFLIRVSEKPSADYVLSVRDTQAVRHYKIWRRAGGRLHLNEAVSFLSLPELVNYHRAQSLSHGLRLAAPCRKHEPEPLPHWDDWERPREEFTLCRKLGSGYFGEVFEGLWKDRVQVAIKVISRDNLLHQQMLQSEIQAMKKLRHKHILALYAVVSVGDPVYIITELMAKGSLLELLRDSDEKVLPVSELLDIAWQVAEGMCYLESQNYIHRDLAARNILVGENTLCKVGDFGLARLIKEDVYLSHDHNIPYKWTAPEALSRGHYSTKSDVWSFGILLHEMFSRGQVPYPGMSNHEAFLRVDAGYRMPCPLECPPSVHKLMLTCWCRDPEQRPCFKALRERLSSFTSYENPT
Source text: (§1) The specificity of LFM-A13 was further examined against a broad panel of serine-threonine kinases and tyrosine kinases using the KinaseProfiler Assay protocols from Upstate (Charlottesville, Virginia).

[4] = target: T1, Cytoplasmic tyrosine-protein kinase BMX (Homo sapiens, UniProt P51813); experiment: Kinase Selectivity Assay
T1 sequence (P51813 whole entry): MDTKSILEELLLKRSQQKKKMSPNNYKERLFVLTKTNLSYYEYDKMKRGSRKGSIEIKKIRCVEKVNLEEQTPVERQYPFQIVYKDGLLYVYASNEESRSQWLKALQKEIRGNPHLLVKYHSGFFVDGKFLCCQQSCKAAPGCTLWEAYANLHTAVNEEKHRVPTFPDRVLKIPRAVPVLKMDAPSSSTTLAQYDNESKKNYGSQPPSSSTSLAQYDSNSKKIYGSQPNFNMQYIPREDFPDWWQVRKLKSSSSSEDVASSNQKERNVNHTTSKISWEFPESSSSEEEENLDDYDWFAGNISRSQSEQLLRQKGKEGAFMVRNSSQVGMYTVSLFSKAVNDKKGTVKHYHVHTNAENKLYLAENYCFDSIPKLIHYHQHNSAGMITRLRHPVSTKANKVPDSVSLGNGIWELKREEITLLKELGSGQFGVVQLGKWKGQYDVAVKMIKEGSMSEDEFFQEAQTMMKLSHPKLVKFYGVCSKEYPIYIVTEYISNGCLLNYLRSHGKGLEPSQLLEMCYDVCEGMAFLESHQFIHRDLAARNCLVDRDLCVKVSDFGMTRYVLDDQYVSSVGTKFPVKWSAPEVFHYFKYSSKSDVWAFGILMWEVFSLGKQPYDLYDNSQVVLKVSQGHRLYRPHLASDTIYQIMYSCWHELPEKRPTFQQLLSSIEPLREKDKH
Source text: as §1

[5] = target: Tyrosine-protein kinase Fyn (Homo sapiens, UniProt P06241); experiment: Kinase Selectivity Assay
Source text: as §1

[6] = target: Cyclin-dependent kinase/G2/mitotic-specific cyclin- 1 (Homo sapiens, UniProt P06493); experiment: Kinase Selectivity Assay
Sequence of Cyclin-dependent kinase/G2/mitotic-specific cyclin- 1 (P06493 whole entry): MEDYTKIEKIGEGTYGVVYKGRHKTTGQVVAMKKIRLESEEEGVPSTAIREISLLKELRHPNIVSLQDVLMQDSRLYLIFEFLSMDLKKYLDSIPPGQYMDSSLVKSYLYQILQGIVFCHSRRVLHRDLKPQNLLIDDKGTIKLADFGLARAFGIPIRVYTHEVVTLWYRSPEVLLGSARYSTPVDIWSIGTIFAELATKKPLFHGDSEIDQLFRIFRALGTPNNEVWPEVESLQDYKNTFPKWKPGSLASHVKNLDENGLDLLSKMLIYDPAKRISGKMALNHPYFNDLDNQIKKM
Sequence of Cyclin-dependent kinase/G2/mitotic-specific cyclin- 1 (P14635 whole entry, further chain): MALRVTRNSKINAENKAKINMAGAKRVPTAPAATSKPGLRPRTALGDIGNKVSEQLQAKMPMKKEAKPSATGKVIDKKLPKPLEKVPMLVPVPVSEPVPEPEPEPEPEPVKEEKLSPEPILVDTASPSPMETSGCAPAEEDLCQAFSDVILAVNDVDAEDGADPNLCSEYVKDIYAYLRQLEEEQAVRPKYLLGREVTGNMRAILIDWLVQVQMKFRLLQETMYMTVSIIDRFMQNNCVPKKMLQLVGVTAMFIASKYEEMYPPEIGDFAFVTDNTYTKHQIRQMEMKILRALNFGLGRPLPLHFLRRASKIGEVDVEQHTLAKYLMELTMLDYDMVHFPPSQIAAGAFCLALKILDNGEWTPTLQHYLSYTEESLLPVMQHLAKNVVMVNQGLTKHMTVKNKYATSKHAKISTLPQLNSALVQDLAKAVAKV
Source text: as §1

[7] = target: Cyclin-A2/Cyclin-dependent kinase 2 (Homo sapiens, UniProt P24941); experiment: Kinase Selectivity Assay
Source text: as §1

[8] = target: T2, Serine/threonine-protein kinase Chk1 (Homo sapiens, UniProt O14757); experiment: Kinase Selectivity Assay
T2 sequence (O14757 whole entry): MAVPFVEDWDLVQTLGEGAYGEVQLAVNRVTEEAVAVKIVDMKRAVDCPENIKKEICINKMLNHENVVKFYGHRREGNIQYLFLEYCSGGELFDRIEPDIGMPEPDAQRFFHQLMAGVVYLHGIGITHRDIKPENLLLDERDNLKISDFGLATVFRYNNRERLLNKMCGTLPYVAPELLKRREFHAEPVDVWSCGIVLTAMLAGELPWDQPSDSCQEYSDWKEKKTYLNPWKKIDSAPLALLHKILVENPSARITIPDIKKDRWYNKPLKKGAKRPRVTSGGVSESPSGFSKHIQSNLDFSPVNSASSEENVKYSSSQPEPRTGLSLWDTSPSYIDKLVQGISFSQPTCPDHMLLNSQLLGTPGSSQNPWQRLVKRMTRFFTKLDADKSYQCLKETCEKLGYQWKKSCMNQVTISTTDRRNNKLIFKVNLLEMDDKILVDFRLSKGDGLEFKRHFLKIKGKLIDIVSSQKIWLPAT
Source text: as §1

[9] = target: Hepatocyte growth factor receptor (Homo sapiens, UniProt P08581); experiment: Kinase Selectivity Assay
Sequence of Hepatocyte growth factor receptor (P08581 whole entry): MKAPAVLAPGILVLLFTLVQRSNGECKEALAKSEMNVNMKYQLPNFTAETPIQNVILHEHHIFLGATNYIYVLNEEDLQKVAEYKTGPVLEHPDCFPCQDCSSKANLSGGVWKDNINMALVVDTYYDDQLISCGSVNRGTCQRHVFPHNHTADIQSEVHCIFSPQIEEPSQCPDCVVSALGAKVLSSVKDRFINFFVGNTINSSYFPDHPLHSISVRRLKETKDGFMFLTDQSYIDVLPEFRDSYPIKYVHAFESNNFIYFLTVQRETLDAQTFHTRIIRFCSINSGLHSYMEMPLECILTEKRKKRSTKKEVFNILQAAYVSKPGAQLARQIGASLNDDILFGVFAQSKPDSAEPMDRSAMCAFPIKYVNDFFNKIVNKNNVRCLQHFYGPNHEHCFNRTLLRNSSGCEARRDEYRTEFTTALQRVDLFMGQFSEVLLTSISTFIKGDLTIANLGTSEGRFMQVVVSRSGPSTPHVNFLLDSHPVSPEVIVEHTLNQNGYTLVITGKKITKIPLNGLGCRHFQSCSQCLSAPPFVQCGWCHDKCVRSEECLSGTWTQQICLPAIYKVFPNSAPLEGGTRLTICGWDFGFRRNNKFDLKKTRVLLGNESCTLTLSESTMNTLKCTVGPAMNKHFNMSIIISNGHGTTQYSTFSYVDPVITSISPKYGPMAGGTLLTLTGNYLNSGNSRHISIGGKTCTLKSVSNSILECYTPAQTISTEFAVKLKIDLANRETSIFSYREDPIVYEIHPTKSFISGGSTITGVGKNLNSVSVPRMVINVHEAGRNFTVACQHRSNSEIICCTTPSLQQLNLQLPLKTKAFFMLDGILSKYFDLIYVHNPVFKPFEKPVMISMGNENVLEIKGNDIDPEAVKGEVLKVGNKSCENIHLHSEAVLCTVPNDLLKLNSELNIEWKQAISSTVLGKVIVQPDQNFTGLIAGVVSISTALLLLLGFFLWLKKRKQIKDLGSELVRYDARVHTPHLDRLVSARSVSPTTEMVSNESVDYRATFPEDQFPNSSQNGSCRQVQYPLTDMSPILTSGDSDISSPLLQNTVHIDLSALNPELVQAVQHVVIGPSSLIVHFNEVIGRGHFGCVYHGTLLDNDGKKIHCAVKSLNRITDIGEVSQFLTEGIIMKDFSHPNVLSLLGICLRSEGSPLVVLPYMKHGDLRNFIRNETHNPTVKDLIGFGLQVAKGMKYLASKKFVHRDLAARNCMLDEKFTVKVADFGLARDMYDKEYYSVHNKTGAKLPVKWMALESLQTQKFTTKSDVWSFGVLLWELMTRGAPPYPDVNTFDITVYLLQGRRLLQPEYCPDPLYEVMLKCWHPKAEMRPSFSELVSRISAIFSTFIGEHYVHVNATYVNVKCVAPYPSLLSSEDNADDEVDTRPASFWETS
Source text: as §1

[10] = target: Mast/stem cell growth factor receptor Kit (Homo sapiens, UniProt P10721); experiment: Kinase Selectivity Assay
Sequence of Mast/stem cell growth factor receptor Kit (P10721 whole entry): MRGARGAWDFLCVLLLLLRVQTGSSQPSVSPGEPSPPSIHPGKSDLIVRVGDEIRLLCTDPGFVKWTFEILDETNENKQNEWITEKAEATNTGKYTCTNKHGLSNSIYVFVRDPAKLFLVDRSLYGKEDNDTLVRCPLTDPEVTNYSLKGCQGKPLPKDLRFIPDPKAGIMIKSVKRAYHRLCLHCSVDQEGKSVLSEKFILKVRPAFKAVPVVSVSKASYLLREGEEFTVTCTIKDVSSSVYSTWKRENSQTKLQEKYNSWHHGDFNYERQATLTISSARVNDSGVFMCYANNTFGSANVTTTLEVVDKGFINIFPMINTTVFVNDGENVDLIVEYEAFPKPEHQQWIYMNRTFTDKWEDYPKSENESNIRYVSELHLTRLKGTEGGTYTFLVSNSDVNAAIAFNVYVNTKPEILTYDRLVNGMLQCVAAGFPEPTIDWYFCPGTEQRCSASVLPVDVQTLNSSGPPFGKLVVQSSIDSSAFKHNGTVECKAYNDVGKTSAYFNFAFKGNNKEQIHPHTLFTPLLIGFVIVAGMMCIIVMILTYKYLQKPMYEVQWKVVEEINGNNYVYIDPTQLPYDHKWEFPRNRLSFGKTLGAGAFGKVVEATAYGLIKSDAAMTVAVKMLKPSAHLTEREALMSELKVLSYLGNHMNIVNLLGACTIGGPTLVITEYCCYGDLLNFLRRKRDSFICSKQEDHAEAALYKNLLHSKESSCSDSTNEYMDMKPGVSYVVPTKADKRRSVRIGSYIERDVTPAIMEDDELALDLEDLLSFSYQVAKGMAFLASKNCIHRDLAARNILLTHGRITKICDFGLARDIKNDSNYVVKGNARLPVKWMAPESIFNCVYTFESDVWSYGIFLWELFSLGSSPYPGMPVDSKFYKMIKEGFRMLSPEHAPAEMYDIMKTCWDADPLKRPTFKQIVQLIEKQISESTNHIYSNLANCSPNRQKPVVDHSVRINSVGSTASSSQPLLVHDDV
Source text: as §1

Sequence of Serine/threonine-protein kinase PLK3 (Q9H4B4 whole entry): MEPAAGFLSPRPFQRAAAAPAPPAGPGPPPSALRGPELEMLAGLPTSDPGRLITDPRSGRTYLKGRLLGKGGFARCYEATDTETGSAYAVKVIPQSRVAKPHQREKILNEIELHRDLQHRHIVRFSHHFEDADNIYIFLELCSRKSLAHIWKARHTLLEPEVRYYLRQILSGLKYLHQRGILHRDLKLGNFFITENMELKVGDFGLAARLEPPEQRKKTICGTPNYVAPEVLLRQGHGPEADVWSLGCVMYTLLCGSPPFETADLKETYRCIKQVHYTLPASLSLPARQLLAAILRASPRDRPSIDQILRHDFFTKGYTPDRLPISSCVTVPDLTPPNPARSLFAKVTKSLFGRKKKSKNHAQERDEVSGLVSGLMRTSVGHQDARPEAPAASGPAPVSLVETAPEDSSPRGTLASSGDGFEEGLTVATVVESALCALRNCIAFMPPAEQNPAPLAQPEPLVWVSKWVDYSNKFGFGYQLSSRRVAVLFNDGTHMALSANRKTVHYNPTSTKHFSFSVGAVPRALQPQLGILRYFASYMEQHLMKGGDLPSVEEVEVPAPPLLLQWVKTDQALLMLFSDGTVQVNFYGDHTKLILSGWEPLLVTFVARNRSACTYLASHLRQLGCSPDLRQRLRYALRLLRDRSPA

How did the IC50 [1] turn out when `CC(=O)C(C#N)C(=O)Nc1cc(Br)ccc1Br` (stereo unspecified) was run?
Its IC50 is 61 µM.

And the Ki [1]?
The Ki was 7.2 µM.

What about the IC50 [2] of the same molecule?
Its IC50 is 10 µM.

And the IC50 [3]?
Its IC50 is 267 µM.

And the IC50 [4]?
The IC50 was 281 µM.

And the IC50 [5]?
The IC50 was 240 µM.

And the IC50 [6]?
The IC50 was greater than 500 µM.

And the IC50 [7]?
The IC50 was greater than 500 µM.

And the IC50 [8]?
Its IC50 is greater than 500 µM.

And the IC50 [9]?
The IC50 was 215 µM.

What about the IC50 [10] of the same molecule?
Its IC50 is greater than 500 µM.
